Source: US7141680B2, “Aromatic compounds possessing antifungal or antibacterial activity” (Genelabs Technologies, Inc., priority 2002, dated 2006)
Where a name gives a salt, the structure may show the parent alone.

Experiments:
bacteria = assay: Minimum inhibitory concentration (MIC) assay, bacteria; assay type: cell-based
Procedure: (§1) The assays described below were used to measure the minimum inhibitory concentration (MIC) of a compound necessary to inhibit visible growth of the organism tested. These assays are adapted from NCCLS protocols M7-A4 and M27-A (NCCLS vol 17:9 and vol 17:2) as modified by Sandven, S., Clin. Micro. (1999) 37:12, p. 3856–3859. MIC values for Aspergillus species were determined using NCCLS protocol M38-P.
(§2) All compounds were dissolved in 100% DMSO to a stock concentration of 10 mM and used fresh stock compounds in powder form were kept frozen until needed and used freshly. When used for test purposes, compounds were diluted in the appropriate media depending on the organism being tested.
(§3) For yeast and aspergillus species, seven 1:2 serial dilutions of compound in appropriate media buffered with MOPS at pH 7.0 were prepared such that the final starting test compound concentrations were 44.4 μM for yeast and 50 μM aspergillus species. For bacteria, dilutions were made in growth media used for the particular bacteria being tested.
Five well-separated colonies from a 24 h Sabouraud Dextrose plate incubated at 35° C. were picked and resuspended into 2 mL of normal saline. The O.D.530 was read and the culture was adjusted to 0.5 McFarland units with normal saline. A 1:2000 dilution was made with RPMI 1640 media buffered with MOPS at pH 7.0 and 100 μL of this inoculum preparation was added to an equal volume of test compound-containing media. 25 μL of the redox indicator Alamar Blue (Biosource International) was added to each well and the plates were incubated for 48 h at 35° C. Wells having yeast growth changed color from blue to pink.
Inoculums are made in the same manner as yeast except all dilutions are made in normal saline, with a final dilution of 1:200 and an inoculum of 10 μL.

Aspergillus species = assay: Minimum inhibitory concentration (MIC) assay, filamentous fungi; assay type: cell-based; settings: antifungal activity, lowest concentration at which 75% inhibition of growth is observed after 48 h
Procedure: as §1, §2, §3
Inoculums are made by incubating Aspergillus species for 7 days at 35° C. on potato dextrose agar slants. Slants are then covered with 1.0 mL of 0.85% saline, one drop of Tween 20 is added and colonies are teased with a sterile transfer loop to create a suspension which is allowed to sit for 5 min so heavier particles can drop out. The upper suspension is separated and adjusted to an optical density of 0.09 to 0.11. The resulting suspension is diluted 1:50, which yields 2× the final inoculum needed. Micro dilution trays are prepared as with yeast and incubated for 48 h at 35° C. For our purposes the MIC is defined as the lowest compound concentration at which 75% inhibition of growth is observed after 48 h.

SMILES | MIC (bacteria) [µM] | MIC (Aspergillus species) [µM]
C/N=C(\N)NCCCNC(=O)c1cc2cc(NC(=O)c3cc4cc(C(=O)NCCNC(=N)NC)ccc4[nH]3)ccc2[nH]1 [Compound 68, 1H-Indole-2,5-dicarboxylic acid 5-{[2-(N′-methyl-guanidino)-ethyl]-amide} 2-({2-[3-(N′-methyl-guanidino)-propylcarbamoyl]-1H-indol-5-yl}-amide)] | ≤ 45.5 | ≤ 50
N=C(N)NC1CCC(NC(=O)c2cc3cc(NC(=O)c4ccc5[nH]c(C(=O)NC6CCC(NC(=N)N)CC6)cc5c4)ccc3[nH]2)CC1 (stereo not shown) [Compound 21, 1H-Indole-2,5-dicarboxylic acid 2-[(4-guanidino-cyclohexyl)-amide] 5-{[2-(4-guaizidino-cyclohexylcarbamoyl)-1H-indol-5-yl]-amide}] | ≤ 45.5 | ≤ 50
C/N=C(\N)NCCCNC(=O)c1ccc2[nH]c(C(=O)Nc3ccc4cc(C(=O)NCCN/C(N)=N/C)[nH]c4c3)cc2c1 [Compound 53, 1H-Indole-2,5-dicarboxylic acid 2-({2-[2-(N′-methylguanidino)ethylcarbamoyl]-1H-indole-6-yl}amide) 5-{[3-(N′-methylguanidino)propyl]amide}dihydrochloride] | ≤ 45.5 | ≤ 50
N=C(N)CCNC(=O)c1cc(NC(=O)c2ccc(C(=O)NCCNC(=N)N)cc2)cn1CC1CC1 [Compound 100, N-[5-(2-Carbamimidoyl-ethylcarbamoyl)-1-cyclopropylmethyl-1H-pyrrol-3-yl]-N′-(2-guanidino-ethyl)-terephthalamide] | ≤ 45.5 | ≤ 50
O=C(NCCNC1=NCCN1)c1ccc2[nH]c(C(=O)Nc3ccc4[nH]c(C(=O)NCCNC5=NCCN5)cc4c3)cc2c1 [Compound 57, 1H-In dole-2,5-dicarboxylic acid 5-{[2-(4,5-dihydro-1H-imidazol-2-ylamino)ethyl]amide} 2-({2-[2-(4,5-dihydro-1H-imidazol-2-ylamino)ethylcarbamoyl]-1H-indole-5-yl}amide)dihydrochloride] | ≤ 45.5 | ≤ 50
C/N=C(\NC)NCCCNC(=O)c1cc2ccc(NC(=O)c3cc4cc(C(=O)NCCN/C(=N/C)NC)ccc4[nH]3)cc2[nH]1 [Compound 64] | ≤ 45.5 | ≤ 50
N=C(N)NCCCNC(=O)c1ccc2[nH]c(C(=O)Nc3ccc4cc(C(=O)NCCCNC(=N)N)[nH]c4c3)cc2c1 [Compound 72, 1H-Indole-2,5-dicarboxylic acid 5-[(3-guanidino-propyl)-amide] 2-{[2-(3-guanidino-propylcarbamoyl)-1H-indol-6-yl-]-amide}] | ≤ 45.5 | ≤ 50
N=C(N)NCCNC(=O)c1cc2cc(NC(=O)c3ccc4[nH]c(C(=O)NCCNC(=N)N)cc4c3)ccc2[nH]1 [Compound 10, 1H-Indole-2,5-dicarboxylic acid 2-[(2-gutanidino-ethyl)-amide] 5-{[2-(2-guanidino-ethylcarbamoyl)-1H-indol-5-yl]-amide}] | ≤ 45.5 | ≤ 50
N=C(N)NCCCNC(=O)c1ccc2[nH]c(C(=O)Nc3ccc4[nH]c(C(=O)NCCNC(=N)N)cc4c3)cc2c1 [Compound 58, 1H-Indole-2,5-dicarboxylic acid 2-{[2-(2-guanidinoethylcarbamoyl)-1H-indol-5-yl]amide} 5-[(3-guanidinopropyl)amide]dihydrochloride] | ≤ 45.5 | ≤ 50
N=C(N)NCc1ccc(CNC(=O)c2cc3cc(NC(=O)c4ccc5[nH]c(C(=O)NCc6ccc(CNC(=N)N)cc6)cc5c4)ccc3[nH]2)cc1 [Compound 22, 1H-Indole-2,5-dicarboxylic acid 2-(4-guanidinomethyl-benzylamide) 5-{[2-(4-guanidinomethyl-benzylcarbamoyl)-1H-indol-5-yl]-amide}] | ≤ 45.5 | ≤ 50
N=C(N)NCCNC(=O)c1ccc2[nH]c(C(=O)Nc3ccc4cc(C(=O)NCNC(=N)N)[nH]c4c3)cc2c1 [Compound 171, 1H-Indole-2,5-dicarboxylic acid 5-[(2-guanidino-ethyl)-amide] 2-{[2-(guanidinomethyl-carbamoyl)-1H-indol-6-yl]-amide}] | ≤ 45.5 | ≤ 50
C/N=C(\N)NCCCNC(=O)c1ccc2[nH]c(C(=O)Nc3ccc4[nH]c(C(=O)NCCN/C(N)=N/C)cc4c3)cc2c1 [Compound 59, 1H-Indole-2,5-dicarboxylic acid 2-({2-[2-(N′methylguanidino)ethylcarbamoyl]-1H-indol-5-yl}amide) 5-{[3-(N′methylguanidino)propyl]amide}hydrochloride] | ≤ 45.5 | ≤ 50
CC/N=C(\NC)NCCNC(=O)c1ccc2[nH]c(C(=O)Nc3ccc4[nH]c(C(=O)NCCN/C(=N/CC)NC)cc4c3)cc2c1 [Compound 91, 1H-Indole-2,5-dicarboxylic acid 2-{[2-(N′-ethyl-N′-methylguanidino)ethyl]amide} 5-({2-[2-(N′-ethyl-N″-methylguanidino)ethylcarbamoyl]-1H-indol-5-yl}amide), dihydrochloride] | ≤ 45.5 | ≤ 50
N=C(N)NCCCNC(=O)c1cc2cc(NC(=O)c3cc4cc(C(=O)NCCNC(=N)N)ccc4[nH]3)ccc2[nH]1 [Compound 67, 1H-Indole-2,5-dicarboxylic acid 5-[(2-guanidino-ethyl)-amide] 2-{[2-(3-guanidino-propylcarbamoyl)-1H-indol-5-yl]-amide}] | ≤ 45.5 | ≤ 50
N=C(N)NCCNC(=O)c1ccc2[nH]c(C(=O)Nc3ccc4sc(C(=O)NCCNC(=N)N)cc4c3)cc2c1 [Compound 174, 1H-Indole-2,5-dicarboxylic acid 5-[(2-guanidino-ethyl)-amide] 2-{[2-(2-guanidino-ethylcarbamoyl)-benzo[b]thiophen-5-yl]-amide}] | ≤ 45.5 | ≤ 50
CNC(=N)NCCCNC(=O)c1cc2ccc(NC(=O)c3cc4cc(C(=O)NCCNC(=N)NC)ccc4[nH]3)cc2[nH]1 [Compound 63, 1H-Indole-2,5-dicarboxylic acid 5-{[2-(N′-methyl-guanidino)-ethyl]-amide} 2-({2-[3-(N′-methyl-guanidino)-propylcarbamoyl]-1H-indol-6-yl}-amide)] | ≤ 45.5 | ≤ 50
N=C(N)NCCCCCNC(=O)c1cc2cc(NC(=O)c3ccc4[nH]c(C(=O)NCCCCCNC(=N)N)cc4c3)ccc2[nH]1 [Compound 20, 1H-Indole-2,5-dicarboxylic acid 2-[(5-guanidino-pentyl)-amide] 5-{[2-(5-guanidino-pentylcarbanzoyl)-1H-indol-5-yl]-amide}] | ≤ 45.5 | ≤ 50
CC(=N)NCCNC(=O)c1ccc2[nH]c(C(=O)Nc3ccc4[nH]c(C(=O)NCCNC(C)=N)cc4c3)cc2c1 [Compound 89] | ≤ 45.5 | ≤ 50
N=C(N)NCCNC(=O)c1ccc2[nH]c(C(=O)Nc3ccc4cc(C(=O)NCCNC(=N)N)[nH]c4c3)cc2c1 [Compound 47, 1H-Indole-2,5-dicarboxylic acid 5-[(2-guanidino-ethyl)-amide] 2-{[2-(2-guanidino-ethylcarbamoyl)-1H-indol-6-yl]-amide}] | ≤ 45.5 | ≤ 50
N=C(N)NCCNC(=O)c1ccc2[nH]c(C(=O)Nc3ccc4cc(C(=O)NCCNC(=N)c5ccccn5)[nH]c4c3)cc2c1 [Compound 180, 1H-Indole-2,5-dicarboxylic acid 5-[(2-guanidinoethyl)amide] 2-[(2-{2-[(pyridine-2-carboximidoyl)amino]ethylcarbamoyl}-1H-indol-6-yl)amide]] | ≤ 45.5 | ≤ 50
N=C(N)NCCCNC(=O)c1cc2ccc(NC(=O)c3cc4cc(C(=O)NCCNC(=N)N)ccc4[nH]3)cc2[nH]1 [Compound 62, 1H-Indole-2,5-dicarboxylic acid 5-[(2-guanidino-ethyl)-amide] 2-{[2-(3-guanidino-propylcarbamoyl)-1H-indol-6-yl]-amide}] | ≤ 45.5 | ≤ 50
CC(=N)NCC1CCC(CNC(=O)c2cc3cc(NC(=O)c4ccc5[nH]c(C(=O)NCC6CCC(CNC(C)=N)CC6)cc5c4)ccc3[nH]2)CC1 (stereo not shown) [Compound 23, 1H-Indole-2,5-dicarboxylic acid 2-{[4-(acetimidoylamino-methyl)-cyclohexylmethyl]-amide} 5-[(2-{[4-(acetimidoylamino-methyl)-cyclohexylmethyl]-carbamoyl}-1H-indol-5-yl)-amide]] | ≤ 45.5 | ≤ 50
C/N=C(\NC)NCCCNC(=O)c1ccc2[nH]c(C(=O)Nc3ccc4[nH]c(C(=O)NCCCN/C(=N/C)NC)cc4c3)cc2c1 [Compound 77, 1H-Indole-2,5-dicarboxylic acid 5-[(3-(N′,N″-dimethyl-guanidino)-propyl)-amide] 2-{[2-(3-(N′,N″-dimethyl-guanidino)-propylcarbamoyl)-1H-indol-5-yl-]-amide}] | ≤ 45.5 | ≤ 50
